From patent publication EP4685143A1 (Vivozon,Inc., priority 2023, dated 2024)

What was measured:
human HDAC6 enzyme = biological target: T1, human HDAC6 enzyme (Homo sapiens, UniProt Q9UBN7); assay: Fluorescence-based enzyme activity assay; format: biochemical; details: substrate with fluorescent peptide of p53 residues 379-382, 30°C for 1 hour
T1 sequence (Q9UBN7 1-1215): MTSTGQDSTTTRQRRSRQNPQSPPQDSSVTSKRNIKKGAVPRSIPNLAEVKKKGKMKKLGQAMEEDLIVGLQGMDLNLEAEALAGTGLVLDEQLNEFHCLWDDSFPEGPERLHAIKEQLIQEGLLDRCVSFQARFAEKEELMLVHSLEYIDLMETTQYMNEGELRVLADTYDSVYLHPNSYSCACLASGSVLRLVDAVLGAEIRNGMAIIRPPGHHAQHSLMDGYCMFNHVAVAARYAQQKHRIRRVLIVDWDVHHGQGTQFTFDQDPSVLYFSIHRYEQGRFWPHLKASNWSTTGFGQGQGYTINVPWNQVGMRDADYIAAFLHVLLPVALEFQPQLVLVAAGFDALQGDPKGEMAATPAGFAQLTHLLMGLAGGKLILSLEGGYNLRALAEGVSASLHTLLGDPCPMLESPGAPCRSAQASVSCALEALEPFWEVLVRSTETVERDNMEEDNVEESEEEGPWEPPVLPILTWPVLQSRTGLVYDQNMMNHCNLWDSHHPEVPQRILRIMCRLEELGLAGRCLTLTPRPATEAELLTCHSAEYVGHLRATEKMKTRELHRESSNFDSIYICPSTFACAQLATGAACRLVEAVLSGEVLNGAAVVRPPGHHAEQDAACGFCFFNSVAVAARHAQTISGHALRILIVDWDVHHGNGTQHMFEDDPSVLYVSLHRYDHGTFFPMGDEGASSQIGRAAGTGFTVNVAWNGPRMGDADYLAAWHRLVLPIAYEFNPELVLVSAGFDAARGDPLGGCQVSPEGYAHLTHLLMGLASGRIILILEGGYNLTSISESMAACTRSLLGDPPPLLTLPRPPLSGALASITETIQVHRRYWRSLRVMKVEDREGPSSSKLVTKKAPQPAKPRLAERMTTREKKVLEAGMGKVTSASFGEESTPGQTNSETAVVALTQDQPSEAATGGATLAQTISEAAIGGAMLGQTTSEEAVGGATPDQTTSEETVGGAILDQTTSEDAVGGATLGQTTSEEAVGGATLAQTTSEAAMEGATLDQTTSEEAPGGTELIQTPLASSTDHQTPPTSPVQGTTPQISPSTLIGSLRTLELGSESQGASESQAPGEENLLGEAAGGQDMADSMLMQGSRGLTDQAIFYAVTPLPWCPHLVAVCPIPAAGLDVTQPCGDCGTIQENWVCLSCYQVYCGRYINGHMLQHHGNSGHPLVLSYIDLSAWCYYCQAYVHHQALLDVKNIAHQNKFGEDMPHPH
Protocol: Experimental Example 1: Fluorescence-based enzyme activity assay
In order to measure the inhibitory effect of the compounds on the activity of histone deacetylase 6 (HDAC6), an enzyme activity assay was performed to evaluate the enzyme activity by reacting the human HDAC6 enzyme with a substrate to which a fluorescent peptide of p53 residues 379-382 was attached. The test compounds were dissolved in 100% DMSO at a concentration of 10 mM to prepare a stock solution. A starting concentration of 30 µM was prepared from the stock solution, followed by 1/3 serial dilutions to prepare the test buffer solution. Trichostatin A (TSA)-which is the reference compound used to confirm the validity of the experiment-was serially diluted by 1/3 with the test buffer solution, starting from the highest concentration of 1 µM. To react the test compounds and TSA prepared in the test buffer with the HDAC6 enzyme, they were dispensed into a 96-well black plate and spin-down of the plate was performed. Then, the reaction was carried out at room temperature for 10 minutes. After 10 minutes, the substrate was dispensed, and the plate was sealed. The reaction was carried out at 30°C for 1 hour under light-blocking conditions. Fluorescence values were measured using a plate reader (wavelength: excitation/emission = 360/460 nm). The fluorescence measurements were normalized to the HDAC6 enzyme-treated group as 100% and the untreated group as 0%, respectively. […]

Human mGluR5 = biological target: T2, Human mGluR5 (Homo sapiens, UniProt P41594); assay: Fluorescence-based Ca2+ mobilization assay; details: HEK293 cell line permanently overexpressing mGluR5, Ca2+ level change induced by L-glutamate at EC80 concentration, FLIPR Tetra
T2 construct: expressed in transfected cells; host or cells: HEK293
T2 sequence (P41594 21-1212): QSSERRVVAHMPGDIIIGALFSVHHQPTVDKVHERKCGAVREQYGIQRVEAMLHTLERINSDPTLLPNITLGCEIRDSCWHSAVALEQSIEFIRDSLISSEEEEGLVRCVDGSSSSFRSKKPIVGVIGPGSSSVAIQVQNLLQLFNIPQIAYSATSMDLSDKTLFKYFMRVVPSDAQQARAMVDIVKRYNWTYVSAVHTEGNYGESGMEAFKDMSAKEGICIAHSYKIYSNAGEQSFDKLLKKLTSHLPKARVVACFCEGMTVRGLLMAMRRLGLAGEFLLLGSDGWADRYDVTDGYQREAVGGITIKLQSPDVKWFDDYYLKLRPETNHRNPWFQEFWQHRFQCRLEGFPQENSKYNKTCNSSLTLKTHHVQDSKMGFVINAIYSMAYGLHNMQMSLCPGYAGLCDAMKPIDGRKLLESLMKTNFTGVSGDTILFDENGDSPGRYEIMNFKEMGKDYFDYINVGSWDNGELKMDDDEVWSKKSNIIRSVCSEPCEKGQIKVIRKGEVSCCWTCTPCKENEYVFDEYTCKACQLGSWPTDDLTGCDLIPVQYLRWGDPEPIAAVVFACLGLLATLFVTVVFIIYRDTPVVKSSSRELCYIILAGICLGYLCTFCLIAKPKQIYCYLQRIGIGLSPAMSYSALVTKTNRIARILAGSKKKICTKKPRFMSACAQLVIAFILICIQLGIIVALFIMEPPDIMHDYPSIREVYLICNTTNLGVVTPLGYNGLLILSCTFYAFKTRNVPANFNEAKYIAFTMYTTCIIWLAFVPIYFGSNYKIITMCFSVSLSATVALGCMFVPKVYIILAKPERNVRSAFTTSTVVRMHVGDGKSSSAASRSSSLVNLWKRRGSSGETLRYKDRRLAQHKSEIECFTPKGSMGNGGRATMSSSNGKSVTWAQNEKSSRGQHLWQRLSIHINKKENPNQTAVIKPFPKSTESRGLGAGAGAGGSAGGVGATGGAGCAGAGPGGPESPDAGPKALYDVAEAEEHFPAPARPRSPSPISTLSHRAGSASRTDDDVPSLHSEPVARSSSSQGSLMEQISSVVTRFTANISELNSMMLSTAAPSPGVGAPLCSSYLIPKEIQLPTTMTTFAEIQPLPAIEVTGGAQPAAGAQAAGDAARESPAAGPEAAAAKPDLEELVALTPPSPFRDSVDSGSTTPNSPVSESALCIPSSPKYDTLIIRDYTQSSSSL
Protocol: Experimental Example 2: Fluorescence-based Ca^2+ mobilization assay
In order to measure the activity of the antagonist on the mGluR5, an experiment was carried out to check the change in the intracellular Ca^2+ level using the HEK293 cell line permanently overexpressing the mGluR5. The cells in the cell culture medium were aliquoted into a 384-well plate coated with poly-D-lysine and cultured in a 37°C incubator supplied with 5% CO2. The next day, the medium was removed and a dye loading buffer-in which a reagent capable of measuring Ca^2+ was dissolved-was added, and then incubated at 37°C for 60 minutes. The test compounds were dissolved in 100% DMSO at a final concentration of 10 mM to make a stock solution. The starting concentration of 10 µM was prepared from the stock solution, followed by serial dilutions to prepare working solutions (test compound working solutions). The test compound working solutions were added to the cells that were incubated in the dye loading buffer, which were maintained for 30 minutes at room temperature in a light-shielding state before measurement. The Ca^2+ level change induced by L-glutamate at EC80 concentration was measured for 2 minutes using FLIPR Tetra (MDS Analytical Technologies). The fluorescent Ca^2+ signal values in the presence of the test compounds were normalized to the fluorescent signal elicited by EC80 concentration of L-glutamate as 100% and that elicited by vehicle as 0% to estimate % inhibition of the test compounds. […]

Row | SMILES | IC50 (human HDAC6 enzyme) | IC50 (Human mGluR5)
1 | O=c1cc(-c2noc(C(F)(F)F)n2)ccn1CC#Cc1cccc(Cl)c1 [Example 7, 1-(3-(3-chlorophenyl)prop-2-yn-1-yl)-4-(5-(trifluoromethyl)-1,2,4-oxadiazol-3-yl)pyridine-2(1H)-one] | 0.5 to 1 µM | 1 to 2 µM
2 | O=c1cc(-c2nnc(C(F)F)o2)ccn1CC#Cc1cccc(Cl)c1 [Example 15, 1-(3-(3-chlorophenyl)prop-2-yn-1-yl)-4-(5-(difluoromethyl)-1,3,4-oxadiazol-2-yl)pyridin-2(1H)-one] | < 0.1 µM | 0.5 to 1 µM
3 | Cc1ccc(C#CCn2ccc(-c3nnc(C(F)F)o3)cc2=O)cc1 [Example 17, 4-(5-(difluoromethyl)-1,3,4-oxadiazol-2-yl)-1-(3-(p-tolyl)prop-2-yn-1-yl)pyridin-2(1H)-one] | 0.1 to 0.5 µM | 1 to 2 µM
4 | Cc1cccc(C#CCn2ccc(-c3nnc(C(F)F)o3)cc2=O)c1 [Example 18, 4-(5-(difluoromethyl)-1,3,4-oxadiazol-2-yl)-1-(3-(m-tolyl)prop-2-yn-1-yl)pyridin-2(1H)-one] | < 0.1 µM | 1 to 2 µM
5 | O=c1cc(-c2nnc(C(F)F)o2)ccn1CC#Cc1cccc(C(F)(F)F)c1 [Example 19, 4-(5-(difluoromethyl)-1,3,4-oxadiazol-2-yl)-1-(3-(3-(trifluoromethyl)phenyl)prop-2-yn-1-yl)pyridin-2(1H)-one] | 0.1 to 0.5 µM | 1 to 2 µM
6 | O=c1cc(-c2nnc(C(F)F)o2)ccn1CC#Cc1cccc(OC(F)(F)F)c1 [Example 20, 4-(5-(difluoromethyl)-1,3,4-oxadiazol-2-yl)-1-(3-(3-(trifluoromethoxy)phenyl)prop-2-yn-1-yl)pyridin-2(1H)-one] | 0.1 to 0.5 µM | 1 to 2 µM
7 | O=c1cc(-c2nnc(C(F)F)o2)ccn1CC#Cc1ccnc(Cl)c1 [Example 23, 1-(3-(2-chloropyridin-4-yl)prop-2-yn-1-yl)-4-(5-(difluoromethyl)-1,3,4-oxadiazol-2-yl)pyridin-2(1H)-one] | < 0.1 µM | 1 to 2 µM
8 | Cc1cccc(C#CCn2ccc(-c3nnc(C(F)F)o3)cc2=O)n1 [Example 24, 4-(5-(difluoromethyl)-1,3,4-oxadiazol-2-yl)-1-(3-(6-methylpyridin-2-yl)prop-2-yn-1-yl)pyridin-2(1H)-one] | < 0.1 µM | 0.5 to 1 µM
9 | O=c1cc(-c2nnc(C(F)F)o2)ccn1CC#Cc1cccc(Br)c1 [Example 25, 1-(3-(3-bromophenyl)prop-2-yn-1-yl)-4-(5-(difluoromethyl)-1,3,4-oxadiazol-2-yl)pyridin-2(1H)-one] | 0.1 to 0.5 µM | 0.5 to 1 µM
10 | O=c1cc(-c2nnc(C(F)F)o2)ccn1CC#Cc1cccc(C(F)F)c1 [Example 26, 4-(5-(difluoromethyl)-1,3,4-oxadiazol-2-yl)-1-(3-(3-(difluoromethyl)phenyl)prop-2-yn-1-yl)pyridin-2(1H)-one] | – | 0.5 to 1 µM
11 | O=c1cc(-c2nnc(C(F)F)o2)ccn1CC#Cc1cccc(OC(F)F)c1 [Example 27, 1-(3-(3-(difluoromethoxy)phenyl)prop-2-yn-1-yl)-4-(5-(difluoromethyl)-1,3,4-oxadiazol-2-yl)pyridin-2(1H)-one] | < 0.1 µM | 1 to 2 µM
12 | O=c1cc(-c2nnc(C(F)(F)F)o2)ccn1CC#Cc1cccc(Cl)c1 [Example 28, 1-(3-(3-chlorophenyl)prop-2-yn-1-yl)-4-(5-(trifluoromethyl)-1,3,4-oxadiazol-2-yl)pyridin-2(1H)-one] | 0.5 to 1 µM | 1 to 2 µM
13 | O=c1cc(-c2noc(C(F)F)n2)ccn1CC#Cc1cccc(Cl)c1 [Example 30, 1-(3-(3-chlorophenyl)prop-2-yn-1-yl)-4-(5-(difluoromethyl)-1,2,4-oxadiazol-3-yl)pyridin-2(1H)-one] | 0.5 to 1 µM | 0.5 to 1 µM
14 | N#Cc1cccc(C#CCn2ccc(-c3nnc(C(F)F)o3)cc2=O)c1 [Example 31, 3-(3-(4-(5-(difluoromethyl)-1,3,4-oxadiazol-2-yl)-2-oxopyridin-1(2H)-yl)prop-1-yn-1-yl)benzonitrile] | < 0.1 µM | 0.5 to 1 µM
15 | O=c1cc(-c2nnc(C(F)F)o2)ccn1CC#Cc1cc(Cl)ccc1F [Example 36, 1-(3-(5-chloro-2-fluorophenyl)prop-2-yn-1-yl)-4-(5-(difluoromethyl)-1,3,4-oxadiazol-2-yl)pyridin-2(1H)-one] | 0.1 to 0.5 µM | 1 to 2 µM
16 | CCC(C#Cc1cccc(Cl)c1)Oc1cc(-c2nnc(C(F)F)o2)ccn1 (stereo not drawn) [Example 44] | – | 1 to 2 µM
17 | Cc1cc(-c2nnc(C(F)F)o2)cc(=O)n1CC#Cc1cccc(Cl)c1 [Example 45, 1-(3-(3-chlorophenyl)prop-2-yn-1-yl)-4-(5-(difluoromethyl)-1,3,4-oxadiazol-2-yl)-6-methylpyridin-2(1H)-one] | 0.1 to 0.5 µM | 0.5 to 1 µM
18 | O=c1cc(-c2nnc(C(F)F)o2)c(Br)cn1CC#Cc1cccc(Cl)c1 [Example 46, 5-bromo-1-(3-(3-chlorophenyl)prop-2-yn-1-yl)-4-(5-(difluoromethyl)-1,3,4-oxadiazol-2-yl)pyridin-2(1H)-one] | – | 0.5 to 1 µM
